Laboratory results: US11384101B2, “Oral care compositions” (priority 2017, dated 2022)
Like-named read-outs stand apart in the source and are kept apart here.

Assays:
oral bacteria = assay: Alamar Blue assay of antibacterial efficacy in the presence of SLS; format: cell-based, oral bacteria from human saliva; conditions: 1 hour after addition of dye; for presence or absence of live bacteria (indicated by color): Alamar Blue assay in the presence of SLS; for Color of Solution: Alamar Blue, 10 mg active + 20 mg of 30 weight % SLS solution + 5 ml oral bacteria solution, 37° C., blue to red indicates live bacteria
Protocol: Table 1 describes the results of an assay evaluating the antibacterial efficacy of an exemplary CPC-ZnCl2 complex of the present invention, in the presence of an anionic surfactant. […] A negative control was also prepared adding 20 mg (+/− 0.9 mg) of the 30 weight % SLS aqueous solution and 5 ml of the prepared oral bacteria solution to deionized water instead of the antibacterial ingredient. The samples were then placed in a 37° C. oven and shaken at 100 RPM for 30 minutes. 200 μL of Alamar Blue dye was then added to each sample and placed back in the 37° C. oven and shaken at 100 RPM. The samples were then monitored every 30 minutes, with the results 1 hour after addition of the dye recorded in Table 1.

[1] = deionized water, physiological temperature (36-37° C.)
[2] = deionized water, room temperature (23-24° C.)
[3] = deionized water, room temperature (23-24° C.), even after 24 hours of aging

| SMILES | presence or absence of live bacteria (indicated by color) (oral bacteria) | Color of Solution (oral bacteria) | solubility of 1.0 weight % aqueous solution [1] | solubility of 10 weight % aqueous solution [1] | solubility of 0.1 weight % aqueous solution [2] | solubility of 0.5 weight % aqueous solution [2] | solubility of 1.0 weight % aqueous solution [3] | solubility of 10.0 weight % aqueous solution [3] | reduction in solubility compared to the CPC and ZnCl2 reactants separately (water) |
| --- | --- | --- | --- | --- | --- | --- | --- | --- | --- |
| CCCCCCCCCCCCCCCC[n+]1ccccc1 [CPC, Cetylpyridinium chloride] | presence of live bacteria | Pink | – | – | – | – | – | – | – |
| [Cl-].[Cl-].[Zn+2] [ZnCl2, zinc chloride] | presence of live bacteria | Purple | – | – | – | – | – | – | – |
| CCCCCCCCCCCCCCCC[n+]1ccccc1.CCCCCCCCCCCCCCCC[n+]1ccccc1.[Cl][Zn-2]([Cl])([Cl])[Cl] [CPC-ZnCl2 complex, [(C21H38N)2][ZnCl4]] | absence of live bacteria | Blue | soluble | not fully soluble | soluble | soluble | undissolved | undissolved | ≥ 25 fold |
